Source: US20090176837A1, “COMPOUNDS WITH ACTIVITY AT RETINOIC ACID RECEPTORS” (SONY CORPORATION, priority 2006, published 2009)
Read-outs that look alike come from different tables or passages of the source.

Target: T1, RARβ2 (Homo sapiens, UniProt P10826)
T1 construct: expressed in transfected cells
T1 sequence (P10826 1-448 isoform P10826-2): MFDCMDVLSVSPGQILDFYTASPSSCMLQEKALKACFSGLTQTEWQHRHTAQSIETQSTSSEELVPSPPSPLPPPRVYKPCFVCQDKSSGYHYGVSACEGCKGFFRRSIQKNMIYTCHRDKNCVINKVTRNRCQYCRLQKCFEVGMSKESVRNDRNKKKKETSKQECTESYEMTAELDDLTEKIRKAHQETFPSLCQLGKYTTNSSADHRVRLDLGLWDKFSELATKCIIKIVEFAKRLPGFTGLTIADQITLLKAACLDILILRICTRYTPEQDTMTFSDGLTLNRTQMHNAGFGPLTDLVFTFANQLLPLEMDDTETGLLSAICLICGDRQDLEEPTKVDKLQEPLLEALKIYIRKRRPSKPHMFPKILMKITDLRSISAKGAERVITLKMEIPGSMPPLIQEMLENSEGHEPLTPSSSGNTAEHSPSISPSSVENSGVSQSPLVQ
Assay: Receptor Selection and Amplification Technology (R-SAT) functional receptor assay
Assay type: cell-based
Excerpt: The functional receptor assay, Receptor Selection and Amplification Technology (R-SAT), was used to investigate the pharmacological properties of known and novel RARβ agonists and antagonists.
Efficacy is relative to the maximal response of the reference ligand, Am-580.

[1] = Table 1, efficacy relative to the maximal response of the reference ligand Am-580, read-out: % Eff.
[2] = Table 1, read-out: pEC50 (converted)
[3] = Table 1, efficacy relative to the maximal response of the reference ligand Am-580
[4] = Table 2, efficacy relative to the maximal response of the reference ligand Am-580
[5] = Table 2, efficacy relative to the maximal response of the reference ligand Am-580, read-out: % Eff.
[6] = Table 2, read-out: pEC50 (converted)

Emax [1]	EC50 [2]	Molecule	other results
77%	676 nM	Cc1sc(-c2ccc(C(=O)O)cc2)nc1OCC(=O)NC(C)CCC(C)C (stereo not drawn) [Compound 57, 4-[4-[2-[(1,4-Dimethylpentyl)amino]-2-oxoethoxy]-5-methyl-2-thiazolyl]-benzoic acid]	
36%	891 nM	CCCCCCc1ccc(-c2ccc(C(=O)Nc3ccc(C)cn3)cc2)cc1 [Compound 63, 4′-Hexyl-biphenyl-4-carboxylic acid (5-methyl-pyridin-2-yl)-amide]	
37%	832 nM	CCCCNC(=O)COc1nc(-c2ccc(C(=O)O)cc2)sc1C [Compound 62, 4-(4-Butylcarbamoylmethoxy-5-methyl-thiazol-2-yl)-benzoic acid]	
59%	309 nM	CCCCCCCCOc1ccc(-c2ccc(C(=O)NCCC#N)cc2)cc1 [Compound 51, 4′-Octyloxy-biphenyl-4-carboxylic acid (2-cyano-ethyl)-amide]	
59%		CCCC1CCCC(c2ccc(-c3ccc(C(=O)O)cc3)cc2)CC1 (stereo not drawn) [Compound 49]	pEC50 (Table 1): 6.55
35%	776 nM	CCCCCCCc1ccc(-c2ccc(C(=O)NCCc3ccccn3)cc2)cc1 [Compound 59, 4′-Heptyl-biphenyl-4-carboxylic acid (2-pyridin-2-yl-ethyl)-amide]	
42%	123 nM	CCCCCCCc1ccc(-c2ccc(C(=O)O)c(F)c2)cc1 [Compound 36, 3-Fluoro-4′-heptyl[1,1′-biphenyl]-4-carboxylic acid]	
78%	257 nM	CCCCCCCc1ccc(-c2ccc(C(=O)NN)cc2)cc1 [Compound 45, 4′-Heptyl-biphenyl-4-carboxylic acid hydrazide]	
66%	708 nM	Cc1sc(-c2ccc(C(=O)O)cc2)nc1OCC(=O)NC1CCC(C)CC1 (stereo not drawn) [Compound 58, 4-[5-Methyl-4-[2-[(4-methylcyclohexyl)amino]-2-oxoethoxy]-2-thiazolyl]-benzoic acid]	

Further lines, the molecule ahead of its results:

Molecule	Emax [1]	EC50 [2]	other results
CCCCCCCc1ccc(-c2ccc(C(=O)O)cc2)cc1 [Compound 10, 4′-Heptyl[1,1′-biphenyl]-4-carboxylic acid]		26.3 nM	% Eff. [3]: 64%
CCCCCCCCCCOc1ccc(-c2ccc(C(=O)O)cc2)cc1 [Compound 20]	98%		pEC50 (Table 1): 7.26
CCCCCCCCc1ccc(-c2ccc(C(=O)OCCc3ccccn3)cc2)cc1 [Compound 28]			pEC50 (Table 2): 7.09; % Eff. [4]: 70%
CCCCCCCCc1ccc(-c2ccc(C(=O)OCCC#N)cc2)cc1 [Compound 34, 4′-Octyl-biphenyl-4-carboxylic acid 2-cyano-ethyl ester]			Emax [5]: 71%; EC50 [6]: 112 nM
CC(C)CCCCOc1ccc(-c2ccc(C(=O)O)cc2)cc1 [Compound 25, 4′-(5-Methyl-hexyloxy)-biphenyl-4-carboxylic acid]	65%		pEC50 (Table 1): 7.20
CCCCCCCCc1ccc(-c2ccc(C(=O)O)cc2)cc1 [Compound 53, 4′-Octyl[1,1′-biphenyl]-4-carboxylic acid]		513 nM	% Eff. [3]: 99%
CCCCCCCCCc1ccc(-c2ccc(C(=O)O)cc2)cc1 [Compound 2, 4′-Nonyl-biphenyl-4-carboxylic acid]	126%	7.94 nM	
CCCCCCCCc1ccc(-c2ccc(C(=O)OCCc3ccccn3)c(F)c2)cc1 [Compound 5, 3-Fluoro-4′-octyl-biphenyl-4-carboxylic acid 2-pyridin-2-yl-ethyl ester]			Emax [5]: 124%; EC50 [6]: 16.2 nM
CCCCCCCOc1ccc(-c2ccc(C(=O)OCCC#N)cc2)cc1 [Compound 23, 4′-Heptyloxy-biphenyl-4-carboxylic acid 2-cyano-ethyl ester]			Emax [5]: 46%; EC50 [6]: 60.3 nM
CCCCCCOc1ccc(-c2ccc(C(=O)O)cc2)cc1 [Compound 12]	72%		pEC50 (Table 1): 7.54
CCCCOCCOc1cc(C)c(-c2ccc(C(=O)O)cc2)cc1C [Compound 44, 4′-(2-Butoxyethoxy)-2′,5′-dimethyl[1,1-biphenyl]-4-carboxylic acid]	41%	245 nM	
CCCCCCCCc1ccc(-c2ccc(C(=O)C(=O)O)cc2)cc1 [Compound 31, (4′-Octyl-biphenyl-4-yl)-oxo-acetic acid]	80%	95.5 nM	
CCCCCCCCc1ccc(-c2ccc(C(=O)OCCc3ccccn3)cc2)cc1 [Compound 40]			pEC50 (Table 2): 6.75; % Eff. [4]: 82%
CCCCCCCc1ccc(-c2ccc(C(=O)O)cc2)cc1 [Compound 9]	76%		pEC50 (Table 1): 7.59
CCCCCCCCOc1ccc(-c2ccc(C(=O)OCCC#N)cc2)cc1 [Compound 42, 4′-Octyloxy-biphenyl-4-carboxylic acid 2-cyano-ethyl ester]			Emax [5]: 46%; EC50 [6]: 195 nM
CCCCCCCCc1ccc(-c2ccc(C(=O)Nc3ccc(C)cn3)cc2)cc1 [Compound 29]	78%		pEC50 (Table 1): 7.08
CCCCCCCc1ccc(-c2ccc(C(=O)O)cc2F)cc1 [Compound 22, 2-Fluoro-4′-heptyl[1,1′-biphenyl]-4-carboxylic acid]	36%	57.5 nM	
CCCCCCOc1ccc(-c2ccc(C(=O)OCc3ccco3)cc2)cc1 [Compound 41, 4′-Hexyloxy-biphenyl-4-carboxylic acid furan-2-ylmethyl ester]			Emax [5]: 25%; EC50 [6]: 178 nM
CCCCCCCCc1ccc(-c2ccc(C(=O)O)cc2C)cc1 [Compound 1, 2-Methyl-4′-octyl[1,1′-hiphenyl]-4-carboxylic acid]	39%	2.29 nM	
CCCCOCCOc1nc(-c2ccc(C(=O)O)cc2)sc1C [Compound 27, 4-[4-(2-Butoxy-ethoxy)-5-methyl-thiazol-2-yl]-benzoic acid]	95%	75.9 nM	
2-Fluoro-4-octyl[1,1′-biphenyl]-4-carboxylic acid [Compound 38]			pEC50 (Table 1): 6.81; % Eff. [3]: 70%
CCCCCCNC(=O)COc1nc(-c2ccc(C(=O)O)cc2)sc1C [Compound 13, 4-(4-Hexylcarbamoylmethoxy-5-methyl-thiazol-2-yl)-benzoic acid]	85%	41.7 nM	
CCCCCCCOc1ccc(-c2ccc(C(=O)O)cc2)cc1 [Compound 24]	58%		pEC50 (Table 1): 7.21
CCCCCCCCc1ccc(-c2ccc(C(=O)n3cnc(NC(C)=O)n3)cc2)cc1 [Compound 15]	76%		pEC50 (Table 1): 7.37
CCCCCCOc1cc(C)c(-c2ccc(C(=O)O)cc2)cc1C [Compound 11, 4′-(Hexyloxy)-2′,5′-dimethyl[1,1′-biphenyl]-4-carboxylic acid]	78%	27.5 nM	
4-Heptyl-3-methyl[1,1′-biphenyl]-4-carboxylic acid [Compound 52]			pEC50 (Table 1): 6.41; % Eff. [3]: 45%
Imidazol-1-yl-(4-octyl-biphenyl-4-yl)-methanone [Compound 8]			pEC50 (Table 1): 7.66; % Eff. [3]: 79%
O=C(O)c1ccc(-c2ccc(OCCC=C(C3CC3)C3CC3)cc2)cc1 [Compound 47, 4′-(4,4-Dicyclopropyl-but-3-enyloxy)-biphenyl-4-carboxylic acid]			% Eff. [3]: 58%
CCCCCCCc1ccc(-c2ccc(C(=O)OCCC#N)cc2)cc1 [Compound 19, 4′-Heptyl-biphenyl-4-carboxylic acid 2-cyano-ethyl ester]			Emax [5]: 36%; EC50 [6]: 52.5 nM
